From patent US20100190832A1, “Mechanism-based inhibitors of transthyretin amyloidosis: studies with biphenyl ethers and structural templates” (NATIONAL INSTITUTE OF IMMUNOLOGY., priority 2008, published 2010)

Target: T1, WT-TTR (Homo sapiens, UniProt P02766)
T1 construct: made in house
Assay: Stagnant acid-mediated TTR aggregation (fibril formation) assay, turbidity at 340 nm
Format: biochemical
Details: pH 4.4, compound 100 μM, WT-TTR 7.2 μM, pH 4.4, 37° C.; for remaining activity at 100 µM: 72 h, read-out: % FF; for inhibition at 100 µM: read-out: % Inhibition
Method: Stagnant Acid-Mediated TTR Aggregation Assay.
After 1 h, the samples were diluted with 0.5 ml of 200 mM sodium acetate buffer containing 100 mM KCl and 1 mM EDTA. Samples after mild vortexing were incubated at 37° C. for the desired amount of time without stirring to evaluate the efficacy of the inhibitors. The extent of aggregation was probed by turbidity measurements at 340 nm using Tecan GENios microplate reader. […] The extent of TTR fibril formation in the absence of inhibitor was defined to be 100%. […] All experiments were done in triplicate. […] The IC50 was determined by plotting mean of % inhibition vs log and fitted to sigmoid equation:
The experiments were conducted at 25° C. After 1 h, the samples were diluted with 0.5 mL of 200 mM sodium acetate buffer pH 4.4 containing 100 mM KCl and 1 mM EDTA, vortexed, and incubated at 37° C. for 72 h. […] The stoichiometry of the binding of the inhibitors was determined by HPLC as described by Green et al., N. S. Palaninathan, S, L, Sacchettini, J. e. […] Dissociation constant of binding of these compounds to TTR was determined by fluorescence titration, and data were fitted into the Adair equation for two bind mg.

SMILES | remaining activity at 100 µM [%] | inhibition at 100 µM [%]
COC(=O)c1sc(=S)n(-c2ccc(Cl)c(Cl)c2)c1N [Compound K286-4369] | 84.5 | 15.6
Clc1ccccc1C1CC(c2cccs2)Nc2nnnn21 (centres unmarked) [Compound K832-3346] | 0 | 100
CCOC(=O)c1sc(=S)n(-c2ccc(Br)cc2)c1N [Compound R052-0946] | 164 | 0
CCOC(=O)c1sc(=S)n(-c2cccc3ccccc23)c1N [Compound R052-0949] | 146 | 0
CCOC(=O)c1c(N)sc(C(=O)Nc2cc(C)cc(C)c2)c1C [Compound R052-1596] | 87.8 | 12.2
CCOC(=O)c1c(N)sc(C(=O)NC2CCCCC2)c1C [Compound R052-1597] | 58.1 | 41.9

Continued, values first:

remaining activity at 100 µM [%] | inhibition at 100 µM [%] | SMILES
60.7 | 39.3 | O=C(NCc1ccco1)c1cc(Sc2cccc(Cl)c2)nc2ccccc12 [Compound K784-7215]
41.8 | 58.2 | O=C(NC1CC1)c1cc(Sc2cccc(Cl)c2)nc2ccccc12 [Compound K784-7224]
– | 0 | CCOc1cccc2c1OC(c1cccc(Cl)c1)N1N=C(c3cccs3)CC21 (centres unmarked) [Compound K805-0132]
41.9 | 58.1 | CCC(=O)NC(c1ccc2c(c1)OCO2)c1cc(Cl)c2cccnc2c1O (centres unmarked) [Compound K839-0017]
4.6 | 95.4 | CC(C)C(=O)NC(c1ccccc1)c1ccc2cccnc2c1O (centres unmarked) [Compound K839-0067]
29.6 | 70.4 | O=C(NC(c1ccccc1)c1cc(Cl)c2cccnc2c1O)c1cccnc1 (centres unmarked) [Compound K839-0113]
34.7 | 65.3 | COc1cccc(C(=O)NC(c2ccccc2)c2cc(Cl)c3cccnc3c2O)c1 (centres unmarked) [Compound K839-0116]
72.8 | 27.2 | O=C(NC(c1cccc([N+](=O)[O-])c1)c1cc(Cl)c2cccnc2c1O)c1cccnc1 (centres unmarked) [Compound K839-0117]
36.7 | 63.3 | O=C(NC(c1ccco1)c1cc(Cl)c2cccnc2c1O)c1cccnc1 (centres unmarked) [Compound K839-0124]
